≈ marks a conversion by molar mass, not a printed value.
How the values were obtained:
[1] = system: S. aureus ATCC 43300 (methicillin resistant); assay: MIC against clinically isolated strain 5; type: cell-based; conditions: Staphylococcus aureus, ATCC43300
Procedure: (§1) Procedure of Antimicrobial susceptibility test: The MIC value of compounds was measured in the antimicrobial susceptibility test using the broth microdilution procedure in accordance with the CLSI guidelines.^21 Cation-adjusted Mueller Hinton broth (CA-MHB) was used for all the S. aureus strains in the assay. Cells in exponential phase of growth were diluted to approximately 5×10^5 cfu/mL. Stock solutions of each compound were freshly dissolved in dimethyl sulfoxide (DMSO). Then, serial dilutions of each compound in CA-MHB medium were added into 96-well microplate. The final percentage of DMSO in the assay was 1%. Control experiments were performed with 1% DMSO instead of the compound solution. After being incubated at 37° C. for 18 h, OD600 value of cells was measured on a microplate reader and the percentage of bacterial cell inhibition with respect to controls was calculated. The MIC value was defined as the lowest compound concentration at which the growth of bacteria was inhibited by ≥90%. Three independent assays were performed for each compound.
(§2) Results: Three compounds, namely 14av_amine16, 14dv_amine16 and 14dv_amine06, were selected to be tested against nine in-house clinically isolated bacterial strains including S. aureus ATCC29247, which is an ampicillin resistant strain, S. aureus ATCC BAA-41, ATCC BAA-1717, ATCC BAA-1720, ATCC 43300 which are methicillin resistant strains and four USA300 strains, (#417, #757, #1799 and #2690), which are the predominant strain type of community-associated MRSA strains in the United States.

[2] = system: USA300 #1799 (community-associated MRSA); assay: MIC against clinically isolated strain 8; type: cell-based, S. aureus; conditions: Staphylococcus aureus
Procedure: as §1, §2

[3] = system: MRSA ATCC 43300; assay: Frequency of resistance (FOR) determination; type: cell-based, S. aureus; conditions: 8 folds of MIC, after 48 hours' incubation
Procedure: Procedure: MRSA ATCC 43300 cells were grown to late-exponential phase (1×10^9 CFU/mL) and spread on agars plates containing 1% DMSO or compound 14av_amine16 at 8 folds of MIC level. The plates were incubated for 48 hours to allow resistant mutants to grow. The spontaneous FOR was calculated as the number of resistance colonies divided by the number of CFUs originally plated. The assay was performed in triplicates.

[4] = target: T1, S. aureus FtsZ (Staphylococcus aureus, UniProt P0A031); assay: Saturation Transfer Difference (STD) NMR study; type: binding; conditions: 298K, line broadening and STD effect
T1 construct: 6-histidine tag; made in house; host or cells: E. coli BL21(DE3)
T1 sequence (P0A031 1-390): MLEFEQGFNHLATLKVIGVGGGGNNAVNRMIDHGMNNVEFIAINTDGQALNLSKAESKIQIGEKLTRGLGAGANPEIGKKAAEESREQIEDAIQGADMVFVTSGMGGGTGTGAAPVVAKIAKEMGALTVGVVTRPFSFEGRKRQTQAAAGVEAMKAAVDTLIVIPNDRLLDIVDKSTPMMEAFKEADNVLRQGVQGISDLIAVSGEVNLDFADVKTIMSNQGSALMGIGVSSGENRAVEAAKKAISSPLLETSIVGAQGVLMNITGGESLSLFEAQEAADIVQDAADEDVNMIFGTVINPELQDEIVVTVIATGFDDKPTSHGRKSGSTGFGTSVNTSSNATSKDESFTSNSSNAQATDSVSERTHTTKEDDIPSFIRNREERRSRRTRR
Procedure: Procedure for expression and purification of S. aureus FtsZ protein: S. aureus FtsZ protein was prepared as previous reported.^16a In brief, E. coli BL21(DE3) cells, transformed with a pRSET-A-S vector carrying S. aureus FtsZ with a 6-histidine tag attached, were streaked on a nutrient agar plate containing 50 μg/mL ampicillin. After overnight incubation at 37° C., a single colony was inoculated into 5 mL of Luria-Bertani (LB) medium in the presence of 50 μg/mL ampicillin, which was then incubated at 37° C., with shaking at 250 rpm for 16 h. […]
Procedure STD NMR study: STD NMR experiments were performed on a Bruker Avance III 600 NMR spectrometer equipped with a QCI cryoprobe at 298K. Spectra were recorded with a carrier set at 0.5 ppm for on-resonance irradiation and 30 ppm for off-resonance irradiation. Control spectra were recorded under identical conditions without compound to test for artifacts. Selective protein saturation was accomplished using a train of 40 Gauss-shaped pulses (50 ms with 1 ms delay between pulses) for a total saturation time of 2 s at an experimentally determined optimal power (7.7625 W on the probe); a T1p spinlock filter (20-50 ms) was incorporated to suppress protein resonances. STD spectra were recorded using a minimum of 128 scans and 32 k points covering a spectral width of 6600 Hz. […]

SMILES: CCC(CC)c1cc(CCN2CCCN(Cc3ccc(C(F)(F)F)cc3)CC2)nc(-c2ccncc2)n1 [Compound 14av_amine16, 1-(2-(6-(pentan-3-yl)-2-(pyridin-4-yl)pyrimidin-4-yl)ethyl)-4-(4-(trifluoromethyl)benzyl)-1,4-diazepane]
- MIC [1]: 12 µM (≈ 6.14 µg/mL)
- MIC [2]: 12 µM (≈ 6.14 µg/mL)
- colonies on plates treated with compound [3]: no colony was observed
- binding to FtsZ protein by STD NMR [4]: indeed bind to FtsZ protein

Source: patent US9951039B2, “Pyrimidines for treatment of bacterial infections” (The Hong Kong Polytechnic University, priority 2016, dated 2018)
